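Five compound concentrations were applied to cells in 96-well plates for 48 hours; endpoints were derived by simple linear interpolation of the resulting dose-response curve. At the TGI there is no net growth.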

Among the test systems are HCT-15 colon; MDA-MB-435; TK-10 renal; UACC-257 melanoma; OVCAR-5 ovarian; OVCAR-4 ovarian; IGROV1 ovarian; CAKI-1 renal; SW-620 colon; EKVX NSCLC; SK-MEL-5 melanoma; LOX IMVI melanoma; SK-MEL-28 melanoma; COLO 205 colon; NCI-H226 lung; T-47D breast; SF-268 CNS; NCI-H522 lung; A498 renal.
Holding throughout (experiment): growth of human tumour cells (NCI), 48 h

For the compound `O=S1(=O)OCCOS(=O)(=O)C1S(=O)(=O)c1ccc2ccccc2c1`, the TGI in the test with HCT-15 colon, with MDA-MB-435, with TK-10 renal, in the test on UACC-257 melanoma, in the test with OVCAR-5 ovarian and in the test with OVCAR-4 ovarian was more than 100 µM throughout. Besides, the TGI with IGROV1 ovarian, with CAKI-1 renal, with SW-620 colon, in the test with EKVX NSCLC, with SK-MEL-5 melanoma and in the test with LOX IMVI melanoma was more than 100 µM in each case. Moreover, the TGI with SK-MEL-28 melanoma and in the test with COLO 205 colon was more than 100 µM in each case.

Consider `CC(C)Oc1c(O)c2c3c(oc(=O)n3C=CC2c2ccccc2)c1OC(C)C` (stereo not drawn), for which the TGI is 33.7 µM in the test on HCT-15 colon; more than 100 µM in the test with NCI-H226 lung; 68.2 µM with TK-10 renal; more than 100 µM in the test on UACC-257 melanoma; more than 100 µM in the test on OVCAR-5 ovarian; more than 100 µM with OVCAR-4 ovarian. Besides, the TGI is 83.1 µM in the test on IGROV1 ovarian; 67.7 µM in the test with CAKI-1 renal; 82.8 µM in the test on SW-620 colon; 74 µM with EKVX NSCLC; more than 100 µM in the test with SK-MEL-5 melanoma; more than 100 µM in the test with T-47D breast. For the same compound, the results for the TGI in the test on LOX IMVI melanoma, with SK-MEL-28 melanoma and in the test with COLO 205 colon were more than 100 µM, 54.5 µM and 60.1 µM, respectively.

As for `CC1=NN(c2cccc(Cl)c2)C(=N/c2nc3ccccc3s2)/C1=C\c1ccc(Cl)cc1`, the TGI with HCT-15 colon was determined as 28.9 µM; in the test on NCI-H226 lung, 43.8 µM; in the test with SF-268 CNS, 38.6 µM; with TK-10 renal, 64.3 µM; with UACC-257 melanoma, 51.2 µM; in the test with OVCAR-5 ovarian it was 40.4 µM. The TGI in the test on IGROV1 ovarian is 33.1 µM; in the test with SW-620 colon, 42.3 µM; in the test on EKVX NSCLC, more than 100 µM; in the test on SK-MEL-5 melanoma, 32 µM; in the test with T-47D breast it was more than 100 µM; in the test with NCI-H522 lung, 35.7 µM. For the same compound, the values for the TGI in the test on LOX IMVI melanoma, with A498 renal and in the test on SK-MEL-28 melanoma were 34 µM, 43.9 µM and 45.2 µM, respectively.

As to `CN1CCN(C(=S)N(C(=O)c2ccc(Cl)cc2)c2ccccc2)CC1`, the TGI in the test on HCT-15 colon, in the test on NCI-H226 lung, in the test with SF-268 CNS, in the test on MDA-MB-435, with TK-10 renal and with UACC-257 melanoma was more than 100 µM each time. Moreover, the TGI in the test with OVCAR-5 ovarian, with OVCAR-4 ovarian, with IGROV1 ovarian, in the test with SW-620 colon, in the test with SK-MEL-5 melanoma and in the test on T-47D breast was more than 100 µM in each case. Besides, the TGI with NCI-H522 lung, in the test with LOX IMVI melanoma, in the test with SK-MEL-28 melanoma and in the test on COLO 205 colon was more than 100 µM each time.

As to `C[C@@]1(O)C[C@@H](N2C(=O)O[C@@H](c3ccccc3)[C@H]2c2ccccc2)[C@@H]1COCc1ccccc1`, the TGI is 84.3 µM in the test on HCT-15 colon; 42.8 µM in the test with NCI-H226 lung; 48.1 µM with SF-268 CNS; more than 100 µM in the test on MDA-MB-435; 99.7 µM in the test on TK-10 renal; 36.7 µM with UACC-257 melanoma. For the same compound, the TGI in the test with OVCAR-5 ovarian is 78.2 µM; in the test on OVCAR-4 ovarian it was more than 100 µM; in the test with IGROV1 ovarian, more than 100 µM; in the test on CAKI-1 renal, more than 100 µM; with SW-620 colon it was more than 100 µM; in the test with EKVX NSCLC it was 70.3 µM. In addition, the TGI with SK-MEL-5 melanoma is 27.2 µM; in the test with NCI-H522 lung it was 38.3 µM; in the test with LOX IMVI melanoma, 32.9 µM; with A498 renal, 52.9 µM; in the test with SK-MEL-28 melanoma, 44.5 µM; in the test on COLO 205 colon, 36.4 µM.

On to `CCOC(=O)c1nnsc1NC(=O)Nc1ccc(Cc2ccc(NC(=O)Nc3snnc3C(=O)OCC)cc2)cc1`, for which the TGI in the test on HCT-15 colon, in the test on NCI-H226 lung, with SF-268 CNS, with MDA-MB-435, in the test on TK-10 renal and in the test with UACC-257 melanoma was more than 100 µM in each case. Moreover, the TGI with OVCAR-5 ovarian, in the test on OVCAR-4 ovarian, with IGROV1 ovarian, in the test on CAKI-1 renal, with SW-620 colon and in the test on EKVX NSCLC was more than 100 µM in each case. The TGI in the test with SK-MEL-5 melanoma was 93 µM; in the test with T-47D breast it was more than 100 µM; with SK-MEL-28 melanoma, more than 100 µM; in the test on COLO 205 colon, more than 100 µM.

Turning to `COC(=O)[C@H](Cc1ccccc1)NP(=O)(OCCC#N)OCC1OC(n2cc(C)c(=O)[nH]c2=O)CC1N=[N+]=[N-]` (stereo partly drawn), the TGI in the test with HCT-15 colon, in the test with NCI-H226 lung, with SF-268 CNS, with MDA-MB-435, in the test with TK-10 renal and with UACC-257 melanoma was more than 100 µM each time. The TGI in the test on OVCAR-5 ovarian, in the test with OVCAR-4 ovarian, in the test with IGROV1 ovarian, with CAKI-1 renal, in the test on SW-620 colon and in the test with EKVX NSCLC was more than 100 µM each time. The TGI in the test on SK-MEL-5 melanoma, in the test on T-47D breast, in the test on NCI-H522 lung, in the test on LOX IMVI melanoma and with COLO 205 colon was more than 100 µM in each case.

`C/C(=C(/C)c1ccc(O)cc1)c1ccc(O)cc1`: the TGI in the test with HCT-15 colon, in the test on NCI-H226 lung, in the test with SF-268 CNS, with MDA-MB-435, in the test with TK-10 renal and in the test on UACC-257 melanoma was more than 100 µM in each case. Further, the TGI was more than 100 µM in the test with OVCAR-5 ovarian; more than 100 µM in the test with IGROV1 ovarian; more than 100 µM in the test on CAKI-1 renal; more than 100 µM with SW-620 colon; 88.2 µM in the test with EKVX NSCLC; 50 µM with SK-MEL-5 melanoma. The TGI with NCI-H522 lung, in the test with A498 renal and with COLO 205 colon was more than 100 µM in each case.

On to `c1cncc(C2(c3cc4ccccc4[nH]3)COCO2)c1` (stereo not drawn), for which the TGI in the test with HCT-15 colon, in the test with NCI-H226 lung, in the test with SF-268 CNS, in the test with MDA-MB-435, in the test on TK-10 renal and in the test on UACC-257 melanoma was more than 100 µM throughout. The TGI with OVCAR-5 ovarian, with OVCAR-4 ovarian, in the test with IGROV1 ovarian, with CAKI-1 renal, in the test with SW-620 colon and in the test on EKVX NSCLC was more than 100 µM throughout. The TGI with SK-MEL-5 melanoma, in the test with T-47D breast, in the test with LOX IMVI melanoma, in the test with SK-MEL-28 melanoma and in the test on COLO 205 colon was more than 100 µM each time.

Source of the values: PubChem BioAssay (NCI).
